Columns and labels:
[1] = Degradation kinetics of FOCM metabolites at storage temperatures, Arrhenius model; assay type: physicochemical; parameters: Ln (K) / Calculated Ln (K) / Calculated K: unit not given here; conditions: for Degradation constant, K: first order, days 0-42
Description: This will further enhance the clinical prediction ability. The stability of these plasma vitamin B and folate metabolites were studied to validate the reliability of the assay and the time-dependent effect on the concentration of the analytes in patient samples. Using freshly made samples and assessing their degradation over time, we have established an Arrhenius models that will allow the team to extrapolate the metabolite level over time.
The stability of these metabolites were assessed using accelerated stress conditions which involves determining degradation rates of analytes through monitoring changes in time of their concentration in solution at several predetermined storage temperatures and then analyzing the results in terms of the Arrhenius equation: […]
For a valid Arrhenius model to be developed, a linear plot determining the degradation rate of analyte at given storage temperatures against reciprocals of these temperatures is needed. The pre-exponential factor A, which may be obtained by extrapolating the straight line to zero value of the temperature reciprocal, appears to be affected by factors such as exposure to pollution^7 and light^8, relative humidity during the ageing, and the analytes. The activation energy, directly proportional to the slope of the straight line, represents a measure of sensitivity of the degradation rate of the studied property to temperature changes. The degradation rate of the analytes at ambient conditions can be estimated by extrapolating the Arrhenius plot for the analyte concentration to storage temperature. Combined with a kinetic equation describing changes of the concentration with time, this rate may then be used to estimate the life-expectancy of the analytes.
In order to estimate the degradation rate constant, k, at the storage temperature of the plasma samples (which is usually −80° C.), a degradation experiment was conducted for FOCM metabolites at ambient temperatures of 37° C., 25° C., 4° C. and −20° C. […] All degradation curves were assumed to be first order. All experimental samples were stored and quantified at days 0, 3, 7, 14, 21, 28 and 42 using the developed LCMS assay. The results below (for 4-pyridoxic acid) are an example of the data obtained for each of the FOCM metabolites.

[2] = Evaluation of stabilizing agents for FOCM metabolites; assay type: physicochemical; conditions: 0.5% ascorbic acid, compared with other stabilizing agents
From the text: A major challenge with the FOCM intermediates during storage and analysis is their poor stability. The metabolites may be unstable through environment exposures such as heat, light and/or oxygen, thereby posing great challenge to determine the actual concentration of these metabolites at the time of collection. These FOCM intermediates make the metabolomics-based assay a very powerful tool to a more accurate quantification. The instability of these vitamins pose a great challenge due to their poor stability in the presence of metallic ions, oxidative species and light which catalyze most of the degradation reactions. Most of the vitamin B and folate metabolites degrade due as a consequence of photooxidation reactions which becomes a challenge for assay development necessitating the provision of the most suitable conditions for storage and processing of the plasma samples in order to produce a highly sensitive and reliable assay method. In order to address the instability issues during sample processing, the analysis will be conducted on at 4° C. using black eppendorf tubes. […] Consistent metabolites extraction is achieved using protein precipitation approach followed by the supernatant evaporated to dryness under nitrogen. […]

[3] = −80 °C, extrapolated from Arrhenius model

## Cc1ncc(CO)c(C(=O)O)c1O [4-Pyridoxic acid]
[1]; 4 °C
  Ln (K): −4.164
  Degradation constant, K: 0.016
[1]; 4 °C, Arrhenius model
  Calculated K: 0.014
  Calculated Ln (K): −4.302
[1]; 25 °C
  Ln (K): −4.019
  Degradation constant, K: 0.018
[1]; 25 °C, Arrhenius model
  Calculated K: 0.019
  Calculated Ln (K): −3.977
[1]; 37 °C
  Ln (K): −3.841
  Degradation constant, K: 0.021
[1]; 37 °C, Arrhenius model
  Calculated K: 0.022
  Calculated Ln (K): −3.810
[1]; Arrhenius plot
  A, Arrhenius pre-exponential factor: 1.37
[1]; Arrhenius plot intercept
  Ln(A): 0.3183
[1]; −20 °C
  Ln (K): −4.806
  Degradation constant, K: 0.008
[1]; −20 °C, Arrhenius model
  Calculated K: 0.009
  Calculated Ln (K): −4.741
[1]; [3]
  Calculated K: 0.002
  Calculated Ln (K): −6.313
[1]; −slope*R of Arrhenius plot
  E, activation energy: 10.6 KJmol^−1

## O=C1O[C@H]([C@@H](O)CO)C(O)=C1O [ascorbic acid]
[2]
  Stabilization of FOCM metabolites from oxidation: more effective in stabilizing the FOCM metabolites from oxidation
